For data set [1], the target named is T1, HCV polymerase (NS5B570n-Con1) (Hepatitis C virus genotype 1b, UniProt Q9WMX2).
T1 construct: contains a 21 amino acid deletion at the C-terminus relative to the full-length HCV polymerase; 6-histidine (N); made in house; host or cells: E. coli BL21(DE) pLysS, plasmid pET17b
Description: HCV NS5B RNA polymerase activity assay (incorporation of radiolabeled nucleotide into RNA). Type of data set: biochemical, HCV Con1 strain. The procedure:
The enzymatic activity of HCV polymerase (NS5B570n-Con1) was measured as the incorporation of radiolabeled nucleotide monophosphates into acid insoluble RNA products. Unincorporated radiolabeled substrate was removed by filtration and scintillant was added to the washed and dried filter plate containing radiolabeled RNA product. The amount of RNA product generated by NS5B570-Con1 at the end of the reaction was directly proportional to the amount of light emitted by the scintillant.
The N-terminal 6-histidine tagged HCV polymerase, derived from HCV Con1 strain, genotype 1b (NS5B570n-Con1) contains a 21 amino acid deletion at the C-terminus relative to the full-length HCV polymerase and was purified from E. coli strain BL21(DE) pLysS. The construct, containing the coding sequence of HCV NS5B Con1 (GenBank accession number AJ242654) was inserted into the plasmid construct pET17b, downstream of a T7 promoter expression cassette and transformed into E. coli. A single colony was grown overnight as a starter culture and later used inoculate 10 L of LB media supplemented with 100 μg/mL ampicillin at 37° C. Protein expression was induced by the addition of 0.25 mM isopropyl-β-D-thiogalactopyranoside (IPTG) when optical density at […] of the culture was between 0.6 and 0.8 and cells were harvested after 16 to 18 h at 30° C. NS5B570n-Con1 was purified to homogeneity using a three-step protocol including subsequent column chromatography on Ni-NTA, SP-Sepharose HP and Superdex 75 resins.
Each 50 μL enzymatic reaction contained 20 nM RNA template derived from the complementary sequence of the Internal Ribosome Entry Site (cIRES), 20 nM NS5B570n-Con1 enzyme, 0.5 μCi of tritiated UTP (Perkin Elmer catalog no. TRK-412; specific activity: 30 to 60 Ci/mmol; stock solution concentration from 7.5×10^−5 M to 20.6×10^−6 M), 1 μM each ATP, CTP, and GTP, 40 mM Tris-HCl pH 8.0, 40 mM NaCl, 4 mM DTT (dithiothreitol), 4 mM MgCl2, and 5 μL of compound serial diluted in DMSO. Reaction mixtures were assembled in 96-well filter plates (cat #MADVN0B, Millipore Co.) and incubated for 2 h at 30° C. Reactions were stopped by addition of 10% final (v/v) trichloroacetic acid and incubated for 40 min at 4° C. […]
The amount of light emitted from the scintillant was converted to counts per minute (CPM) on a Topcount® plate reader (Perkin-Elmer, Energy Range: Low, Efficiency Mode Normal, Count Time: 1 min, Background Subtract: none, Cross talk reduction: Off).
Data was analyzed in Excel® (Microsoft®) and ActivityBase® (Idbs®). […] All data was expressed as a percentage of the positive control. […]

Data set [2] deals with HCV replicon cells (2209-23), genotype 1b replicon in Huh7 cells. Kind of data set: HCV replicon assay (Renilla luciferase reporter). Type of data set: cell-based, HCV genotype 1b. The settings on record: Hepatitis C virus, Huh-7, 72 h; 2209-23 cells, three days incubation, luciferase readout. For orientation: A replicon is a self-replicating genome or part of one, used to study replication in cells.

The next data set can be described thus: in vitro. The following applies: human.

As to `CC1(C)COc2c(-n3ccc(=O)[nH]c3=O)cc(-c3ccc4cc(NS(C)(=O)=O)ccc4c3)cc21` [Compound I-1, N-{6-[7-(2,4-Dioxo-3,4-dihydro-2H-pyrimidin-1-yl)-3,3-dimethyl-2,3-dihydro-benzofuran-5-yl]-naphthalen-2-yl}-methanesulfonamide], in data set [1], the concentration for half-maximal inhibition (IC50) (usually the concentration that inhibits the measured activity by half) worked out at 0.5 nM. That is a sub-nanomolar value.
As for `COc1c(-c2ccc3cc(NS(C)(=O)=O)ccc3c2)cc(-n2ccc(=O)[nH]c2=O)c2c1C(C)(C)CO2` [Compound I-2, N-{6-[7-(2,4-Dioxo-3,4-dihydro-2H-pyrimidin-1-yl)-4-methoxy-3,3-dimethyl-2,3-dihydro-benzofuran-5-yl]-naphthalen-2-yl}-methanesulfonamide], the IC50 in data set [1] was determined as 0.6 nM; in data set [2], 5.2 nM. Besides, in the data set “in vitro”, the CC50 amounted to 12000 nM.
`COc1c(-c2ccc3cc(NS(C)(=O)=O)ccc3c2)cc(N2CCC(=O)NC2=O)c2c1C(C)(C)CO2` [Compound I-3, N-{6-[7-(2,4-Dioxo-tetrahydro-pyrimidin-1-yl)-4-methoxy-3,3-dimethyl-2,3-dihydro-benzofuran-5-yl]-naphthalen-2-yl}-methanesulfonamide] yielded an IC50 in data set [1] of 4.7 nM.
With `CC1(C)COc2c(-c3ccc4cc(NS(C)(=O)=O)ccc4c3)cc(-n3ccc(=O)[nH]c3=O)cc21` [Compound I-4, N-{6-[5-(2,4-Dioxo-3,4-dihydro-2H-pyrimidin-1-yl)-3,3-dimethyl-2,3-dihydro-benzofuran-7-yl]-naphthalen-2-yl}-methanesulfonamide], the half-maximal inhibitory concentration (IC50) in data set [1] turned out to be 0.9 nM; in data set [2], 106 nM. In “in vitro”, this molecule had a CC50 of 2700 nM.

Values taken from patent US20110123490A1, “HE[…] COMPOUNDS” (priority 2009, published 2011).
